Source: article PMC4150738 (Analytica chimica acta, 2014)
Where two headings read alike, the source gives them in different places.

Experiments:
[1] = cited from earlier work
[2] = 1,000 μg L^−1, room temp, 4°C and −20°C for 1 to 14 days; ref 29 (Johnson et al); cited from earlier work
[3] = for plasma concentration, Without hydrolysis / plasma concentration, Hydrolysis: LOQ 0.25 μg L^−1; for plasma concentration, Hydrolysis: with hydrolysis
[4] = Short-term stability in fortified plasma; assay type: physicochemical, human
[5] = ref 24 (Wang et al); cited from earlier work
monoamine transporter = conditions: in vitro transporter assays, similar to cocaine; ref 13 (Baumann et al.); cited from earlier work
[6] = ref 24 (Wang et al), cited from earlier work
[7] = rat plasma, 0.5 mg kg-1 MDPV ip, 10 min
[8] = rat plasma, 0.5 mg kg-1 MDPV ip, 20 min
[9] = rat plasma, 0.5 mg kg-1 MDPV ip, 30 min
[10] = rat plasma, 0.5 mg kg-1 MDPV ip, 60 min
[11] = rat plasma, 0.5 mg kg-1 MDPV ip, 120 min
[12] = rat plasma, 0.5 mg kg-1 MDPV ip, 240 min
[13] = rat plasma, 0.5 mg kg-1 MDPV ip, 480 min
[14] = rat plasma, 0.5 mg kg-1 MDPV sc, 10 min
[15] = rat plasma, 0.5 mg kg-1 MDPV sc, 20 min
[16] = rat plasma, 0.5 mg kg-1 MDPV sc, 30 min
[17] = rat plasma, 0.5 mg kg-1 MDPV sc, 60 min
[18] = rat plasma, 0.5 mg kg-1 MDPV sc, 120 min
[19] = rat plasma, 0.5 mg kg-1 MDPV sc, 240 min
[20] = rat plasma, 0.5 mg kg-1 MDPV sc, 480 min
[21] = High QC 750 μg L^−1, n=5, vs freshly fortified
[22] = Low QC 0.75 μg L^−1, n=5, vs freshly fortified
[23] = Medium QC 25 μg L^−1, n=5, vs freshly fortified

For CCCC(C(=O)c1ccc2c(c1)OCO2)N1CCCC1 (stereo not shown) [MDPV, 3,4-methylenedioxypyrovalerone, reference compound], the “MDPV blood concentrations, human performance cases” value ([1]; 9 human performance cases, ref 26 (Marinetti et al.)) is listed as 6 to 368 µg/L, the “MDPV blood concentrations, postmortem cases” value ([1]; 23 postmortem cases, ref 26 (Marinetti et al.)) is listed as 10 to 640 µg/L and the “serum MDPV concentrations” value ([1]; Finnish drivers stopped for suspicion of driving under the influence of drugs, ref 25 (Kriikku et al.)) is listed as 20 to 8000 µg/L. For the same compound, the “MDPV concentrations in human plasma, in most cases” value [1] was “below 1000 μg L^−1”, the “stability in fortified plasma” value [2] was “stable” and the “change of plasma concentration without the deconjugation step (hydrolysis)” value ([3]; rat plasma after 0.5 mg kg-1 MDPV ip or sc, with vs without hydrolysis) was “did not change”. The “plasma concentration, Without hydrolysis” value ([3]; rat plasma, 0.5 mg kg-1 MDPV ip, 0 min (before dosing)) was “<LOQ”, the “plasma concentration, Hydrolysis” value [3, 7] was 8.0 ng/mL and the “plasma concentration, Without hydrolysis” value [3, 7] was 9.4 ng/mL. The “plasma concentration, Hydrolysis” value [3, 8] was 6.6 ng/mL, the “plasma concentration, Without hydrolysis” value [3, 8] was 7.2 ng/mL and the “plasma concentration, Hydrolysis” value [3, 9] was 7.6 ng/mL. For the same compound, the “plasma concentration, Without hydrolysis” value [3, 9] was 8.4 ng/mL, the “plasma concentration, Hydrolysis” value [3, 10] was 3.6 ng/mL and the “plasma concentration, Without hydrolysis” value [3, 10] was 2.9 ng/mL. The “plasma concentration, Hydrolysis” value [3, 11] was 1.8 ng/mL, the “plasma concentration, Without hydrolysis” value [3, 11] was 2.2 ng/mL and the “plasma concentration, Hydrolysis” value [3, 12] was 1.3 ng/mL. The “plasma concentration, Without hydrolysis” value [3, 12] was 0.6 ng/mL, the “plasma concentration, Hydrolysis” value [3, 13] was 0.9 ng/mL and the “plasma concentration, Without hydrolysis” value [3, 13] was 1.2 ng/mL. For the same compound, the “plasma concentration, Without hydrolysis” value ([3]; rat plasma, 0.5 mg kg-1 MDPV sc, 0 min (before dosing)) was “<LOQ”, the “plasma concentration, Hydrolysis” value [3, 14] was 107.5 ng/mL and the “plasma concentration, Without hydrolysis” value [3, 14] was 120.1 ng/mL. The “plasma concentration, Hydrolysis” value [3, 15] was 82.1 ng/mL, the “plasma concentration, Without hydrolysis” value [3, 15] was 92.9 ng/mL and the “plasma concentration, Hydrolysis” value [3, 16] was 51.7 ng/mL. For the same compound, the “plasma concentration, Without hydrolysis” value [3, 16] was 56.6 ng/mL, the “plasma concentration, Hydrolysis” value [3, 17] was 38.4 ng/mL and the “plasma concentration, Without hydrolysis” value [3, 17] was 34 ng/mL. The “plasma concentration, Hydrolysis” value [3, 18] was 9.9 ng/mL, the “plasma concentration, Without hydrolysis” value [3, 18] was 1.5 ng/mL and the “plasma concentration, Hydrolysis” value [3, 19] was 4.8 ng/mL. For the same compound, the “plasma concentration, Without hydrolysis” value [3, 19] was 3.1 ng/mL, the “plasma concentration, Hydrolysis” value [3, 20] was 1.7 ng/mL and the “plasma concentration, Without hydrolysis” value [3, 20] was 1.4 ng/mL. For the same compound, the “plasma concentration range after intraperitoneal dosing” value ([3]; rat plasma, 0.5 mg kg^−1 MDPV intraperitoneal, samples 10-480 min after dosing) was 0.9 to 8.0 ng/mL, the “plasma concentration range after the subcutaneous dose” value ([3]; rat plasma, 0.5 mg kg^−1 MDPV subcutaneous, samples 10-480 min after dosing) was 1.7 to 107.5 ng/mL and the “Stability (% difference) 3 freeze-thaw cycles” value [4, 21] was 1.5 % difference. For the same compound, the “Stability (% difference) 72h at 4°C” value [4, 21] was 3.5 % difference, the “Stability (% difference) 3 freeze-thaw cycles” value [4, 22] was 3.5 % difference and the “Stability (% difference) 72h at 4°C” value [4, 22] was 7.7 % difference. The “Stability (% difference) 3 freeze-thaw cycles” value [4, 23] was −1.1 % difference, the “Stability (% difference) 72h at 4°C” value [4, 23] was 2.2 % difference and the “concentration in plasma, horse-doping” value [5] was 5.8 ng/mL. For the same compound, the monoamine transporter blockade (monoamine transporter) was “potent monoamine transporter blocker”, the “stability of MDPV in plasma, time stable” value ([6]; at room temperature) was 27 h and the “stability of MDPV in plasma, time stable” value ([6]; at −20°C) was 600 h. The “stability of MDPV in plasma, freeze-thaw cycles” value [6] was 3 freeze-thaw cycles.
